# Measurements from US20260315446A1, “ANTIFUNGAL COMPOUNDS AND USES THEREOF” (priority 2023, published 2026).
# Like-named read-outs stand apart in the source and are kept apart here.
# Tests used:
# cryptococcosis = conditions: cited from earlier work
# Cryptococcus neoformans = experiment: MIC assay (Example 3); format: cell-based; conditions: Cryptococcus neoformans
# Description: (§1) In vitro antifungal activity was assessed for all fungal strains in RPMI 1640 (Sigma-Aldrich R1383). MICs were measured using Clinical and Laboratory Standards Institute (CLSI) M38-A2 and M27-A3 standard in vitro antifungal susceptibility protocols. C. neoformans and A. fumigatus testing was performed at 37° C. MECs for A. fumigatus were recorded after 48 h of growth. C. albicans testing was performed at 30° C. with a uniform concentration of 2 μg/mL of fluconazole to sensitize the cells to calcineurin inhibition.
# (§2) C. neoformans clinical isolate H99 and congenic-derived strain KN99α were used (see, Nielsen K, et al., 2003. Infect Immun 71:4831-4841). KN99α-derived frr1Δ deletion mutants with nourseothricin resistance markers as part of the Madhani deletion collection (NIH funding R01AI100272) were used. C. deneoformans strains used include JEC21 and derived C21F2 (CNB1-1) and C21F3 (frr1-3) strains (see, Odom A, et al., 1997. EMBO J 16:2576-2589; Moore T D, Edman J C. 1993. Mol Cell Biol 13:1962-1970; Fox D S, et al., 2001. Mol Microbiol 39:835-849). C. albicans strain SC5314 is the wild-type strain from which mutants YAG171 (rbp1/rbp1) and YAG237 (CNB1-1/CNB1) were derived (see, Cruz M C, et al., 2001. Antimicrob Agents Chemother 45:3162-3170). A. fumigatus strain akuB^Ku80 and a derived FKBP12 mutant fkbp12A were used during antifungal screening (see, Falloon K, et al., 2015. PLoS One 10:e0137869).
# [1] = system: IL-2 expression in primary mouse CD4+ T cells (mammalian calcineurin); experiment: In vitro immunosuppressive activity, IL-2 expression (Example 3); format: cell-based; conditions: 72 h
# Description: Modifications at the C-22 position reduce inhibition of mammalian calcineurin signaling Mammalian calcineurin inhibition was then assessed and found to be reduced for these FK520 analogs. The inhibition of mammalian calcineurin was assessed by measuring the reduction of IL-2 expression from primary mouse CD4^+ T cells cultured in the presence of FK506, FK520, or an analog. Calcineurin activity is required for T cell activation and cytokine production, and IL-2 production serves as an effective measure of mammalian calcineurin activity. After culturing mouse CD4′ T cells for 72 h, IL-2 expression was analyzed by flow cytometry to evaluate the immunosuppressive activity of the analogs. […] However, compound concentrations that permit high IL-2 expression are less likely to result in cell death.
# Spleen and lymph nodes from C57BL/6 mice were collected and homogenized through a 40-μm filter. Pan-CD4^+ T cells were enriched using the MagniSort Mouse CD4 T Cell Enrichment Kit (Invitrogen). Thereafter, CD4^+CD25^−CD62L^hiCD44^lo naïve CD4^+ T cells were FACS-sorted using a MoFlo Astrios cell sorter (Beckman Coulter). Naïve CD4^+ T cells were cultured in Iscove's Modified Dulbecco's Medium supplemented with 10% fetal bovine serum (FBS), penicillin (10 U/mL), streptomycin (10 μg/mL), glutamine (2 mM), gentamicin (50 μg/mL), and β-mercaptoethanol (55 μM). Cells were cultured for 72 h on anti-hamster IgG-coated plates with hamster anti-CD3s antibodies, hamster anti-CD28 antibodies, neutralizing anti-IL-4 antibodies, recombinant IL-12 (10 ng/mL), and recombinant IL-2 (50 U/mL). During this culture, cells were incubated with serially diluted drugs suspended in DMSO.
# [2] = Solubility in microdilution broth assays; format: physicochemical
# Description: FIG. 12: Low-solubility compounds in MIC assay. Representative image of MIC assay read by plate reader with growth indicated on a range from 0.04 to 0.1 OD, black to green coloration. Starting concentration 50 μg/mL for all drugs. (A) H99 cultured in wells, and (B) wells contain RPMI media and no fungal cells with green coloration indicative of false positive growth caused by drug insolubility.
# To assess antifungal activity, the panel of compounds was tested for fungal growth inhibition using minimum inhibitory concentration (MIC) assays against C. neoformans and C. albicans and minimum effective concentration (MEC) assays against A. fumigatus. […] MEC values against A. fumigatus ranged from 0.6 to 2.5 μg/mL for 10 of the analogs tested. […] Overall, a majority of these analogs maintain relatively potent antifungal activity across species and represent an active library for further investigation.
# [3] = system: C. neoformans growth versus IL-2 in murine T cells; experiment: Therapeutic index score (immunosuppressive fold change to antifungal fold change relative to FK506); set-up: species or system Cryptococcus neoformans; mouse; conditions: Example 3; C. neoformans H99, FK506 = 1.0
# Description: To assess the therapeutic potential for these compounds, it was important to develop an approach to score and rank them based on antifungal and immunosuppressive activities. The therapeutic index score (TIscore) is a ratio of the immunosuppressive fold change to the antifungal fold change, with all values relative to the baseline FK506 activity (FIG. 6B). A TIscore of >1.0 indicates an increase in fungal specificity because the fold change of the immunosuppressive reduction is greater than the antifungal activity reduction. As an example, JH-FK-05 is 20-fold reduced for antifungal activity but about 180-fold reduced for immunosuppression. Therefore, the TIscore of JH-FK-05 is 9.1 (TIscore=182/20). The top two analogs were JH-FK-02 (TIscore=9.7) and JH-FK-05 (TIscore=9.1). Due to the similar TIscore, JH-FK-05 was prioritized to advance to animal trials on the merit of more pronounced antifungal activity compared to JH-FK-02.
# Based on the in vitro fungal and mammalian calcineurin inhibition data, the panel of FK520 analogs was assessed and ranked. Therapeutic index (TI) scores were used to quantify the effects of structural modification on the compounds (Table 8). Therapeutic index scores were calculated for each analog as the ratio of relative change in immunosuppressive and antifungal activities compared to FK506 as previously utilized (see, I-Toy M J, et at. 2022. mBio 13:e0104922). This ratio of therapeutic benefit and host toxicity, or fungal and mammalian calcineurin inhibition, allowed us to quantify and rank these analogs. […] This is the greatest TI found within the library and allowed us to identify JH-FK-08 as a lead candidate for an in vivo study. Tolerability of JH-FK-08 was assessed by monitoring animal responses to drug dosing across 14 days, including changes in weight, fur condition, and behavior. A maximum dose of 40 mg/kg was tested in once a day dosing, and due to solubility limitations, the tolerability of JH-FK-08 at 60 and 80 mg/kg total daily doses was assessed by dosing two equal doses per day (FIG. 14). […] It should be noted that analogs JH-FK-12 and JH-FK-23 are also promising candidates with respective Tis of 24.7 and 24.5.
# Candida albicans = experiment: MIC assay (Example 3); format: cell-based; conditions: Candida albicans, SC5314; MIC80, 30° C. with 2 μg/mL fluconazole; read-out: MIC against Candida albicans (SC5314)
# Description: as §1, §2
# Aspergillus fumigatus = experiment: MEC assay (Example 3); conditions: strain akuB^Ku80
# [4] = MIC90, 37° C., read-out: MIC against Cryptococcus neoformans (H99)
SMILES,interaction with fluconazole in pulmonary cryptococcosis model (cryptococcosis; in vivo combination therapy with fluconazole),fungal burden in animal model of cryptococcosis (cryptococcosis; in vivo),"MIC (Cryptococcus neoformans; Table 8, read-out: H99 MIC90)",IC50 [1],solubility during microdilution broth assays [2],Therapeutic index [3],MIC (Candida albicans),MIC (Cryptococcus neoformans; [4]),MEC against Aspergillus fumigatus (akuB^Ku80) (Aspergillus fumigatus)
C=CC[C@@H]1/C=C(\C)C[C@H](C)C[C@H](OC)[C@H]2O[C@@](O)(C(=O)C(=O)N3CCCC[C@H]3C(=O)O[C@H](/C(C)=C/[C@@H]3CC[C@@H](O)[C@H](OC)C3)[C@H](C)[C@@H](O)CC1=NNC(C)=O)[C@H](C)C[C@@H]2OC [JH-FK-01],benefits from this synergistic interaction,significantly reduced fungal burden,–,–,–,–,–,–,–
CC[C@@H]1/C=C(\C)C[C@H](C)C[C@H](OC)[C@H]2O[C@@](O)(C(=O)C(=O)N3CCCC[C@H]3C(=O)O[C@H](/C(C)=C/C3CC[C@@H](O)[C@H](OC)C3)[C@H](C)[C@@H](O)C/C1=N/NS(=O)(=O)c1ccc(C)cc1)[C@H](C)C[C@@H]2OC (stereo partly shown) [JH-FK-13],–,–,> 50 µg/mL,> 200 nM,exhibited solubility issues,–,–,–,–
CC[C@@H]1/C=C(\C)C[C@H](C)C[C@H](OC)[C@H]2O[C@@](O)(C(=O)C(=O)N3CCCC[C@H]3C(=O)O[C@H](/C(C)=C/C3CC[C@@H](O)[C@H](OC)C3)[C@H](C)[C@@H](O)C/C1=N/NC(=O)c1ccc3ccccc3c1)[C@H](C)C[C@@H]2OC (stereo partly shown) [JH-FK-15],–,–,3.1 µg/mL,17.4 nM,exhibited solubility issues,3.1,0.4 µg/mL,3.1 µg/mL,0.3 µg/mL
CC[C@@H]1/C=C(\C)C[C@H](C)C[C@H](OC)[C@H]2O[C@@](O)(C(=O)C(=O)N3CCCC[C@H]3C(=O)O[C@H](/C(C)=C/C3CC[C@@H](O)[C@H](OC)C3)[C@H](C)[C@@H](O)C/C1=N/NC(=O)c1ccc(F)cc1)[C@H](C)C[C@@H]2OC (stereo partly shown) [JH-FK-17],–,–,0.4 µg/mL,9.4 nM,exhibited solubility issues,13.1,0.4 µg/mL,0.4 µg/mL,1.3 µg/mL
